The values that follow come from ChEMBL document CHEMBL1909046, “DrugMatrix in vitro pharmacology data”.

Broadly, the IC50 is the concentration at which inhibition is half-maximal. The term Ki denotes the dissociation constant of the complex between target and ligand, obtained from inhibition or displacement.

Experiment [1] has as its target T1, C-X-C chemokine receptor type 1 (Homo sapiens, UniProt P25024). Further: in other assays of this panel Not Active means under 50% inhibition at 10 µM.
T1 sequence (P25024 whole entry): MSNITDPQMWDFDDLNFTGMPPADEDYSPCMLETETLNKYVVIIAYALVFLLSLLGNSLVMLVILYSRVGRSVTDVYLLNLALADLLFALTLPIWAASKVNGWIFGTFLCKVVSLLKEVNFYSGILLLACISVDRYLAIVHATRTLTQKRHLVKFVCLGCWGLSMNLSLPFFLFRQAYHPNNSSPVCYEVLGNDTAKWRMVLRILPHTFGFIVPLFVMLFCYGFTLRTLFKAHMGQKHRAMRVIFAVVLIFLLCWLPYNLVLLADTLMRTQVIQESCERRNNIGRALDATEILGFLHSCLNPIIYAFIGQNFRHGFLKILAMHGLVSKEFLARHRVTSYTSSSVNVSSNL

Experiment [2] addresses T2, B2 bradykinin receptor (Homo sapiens, UniProt P30411).
T2 sequence (P30411 whole entry): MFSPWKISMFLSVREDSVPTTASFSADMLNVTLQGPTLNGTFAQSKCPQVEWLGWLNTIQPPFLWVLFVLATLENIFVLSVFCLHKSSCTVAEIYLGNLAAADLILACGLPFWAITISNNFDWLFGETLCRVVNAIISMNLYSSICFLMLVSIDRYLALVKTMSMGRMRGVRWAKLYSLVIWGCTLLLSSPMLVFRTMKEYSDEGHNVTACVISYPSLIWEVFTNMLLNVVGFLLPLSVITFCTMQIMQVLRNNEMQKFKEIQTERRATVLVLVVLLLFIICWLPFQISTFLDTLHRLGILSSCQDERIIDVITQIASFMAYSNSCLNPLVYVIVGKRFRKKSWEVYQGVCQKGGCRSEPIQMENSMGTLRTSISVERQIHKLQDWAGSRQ
Format: cell membranes, Membrane. The settings on record: chem-1.

Experiment [3] has as its target T3, D(4) dopamine receptor (Homo sapiens, UniProt P21917).
T3 sequence (P21917 whole entry): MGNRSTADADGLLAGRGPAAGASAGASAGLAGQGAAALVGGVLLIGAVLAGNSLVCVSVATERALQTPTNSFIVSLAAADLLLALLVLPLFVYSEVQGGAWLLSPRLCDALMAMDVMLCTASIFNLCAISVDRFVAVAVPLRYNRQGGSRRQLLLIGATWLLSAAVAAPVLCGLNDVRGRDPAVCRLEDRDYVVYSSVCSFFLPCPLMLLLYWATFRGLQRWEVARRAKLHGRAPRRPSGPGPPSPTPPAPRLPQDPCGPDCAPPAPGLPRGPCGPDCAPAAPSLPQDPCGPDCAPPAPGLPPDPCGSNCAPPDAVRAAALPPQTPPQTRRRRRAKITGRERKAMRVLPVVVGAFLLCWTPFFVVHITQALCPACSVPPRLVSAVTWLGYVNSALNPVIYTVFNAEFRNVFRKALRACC
Nature of the experiment: DRUGMATRIX: Dopamine D4.2 radioligand binding (ligand: [3H] Spiperone). It counts as cell membranes, Membrane. Particulars: cho-k1; Not Active = under 50% inhibition at 10 µM.

The nature of experiment [4]: DRUGMATRIX: beta-Lactamase enzyme inhibition (substrate: Nitrocefin). The settings on record: Not Active = under 50% inhibition at 10 µM. Details: species or system Bacillus cereus.
Experiment [5] has as its target Beta-2 adrenergic receptor (Homo sapiens, UniProt P07550). The experiment in a line: DRUGMATRIX: Adrenergic beta2 radioligand binding (ligand: [3H] CGP-12177). It counts as cell membranes, Membrane. Particulars: cho; Not Active = under 50% inhibition at 10 µM.
In experiment [6] the target is D(3) dopamine receptor (Homo sapiens, UniProt P35462). The experiment in a line: DRUGMATRIX: Dopamine D3 radioligand binding (ligand: [3H] Spiperone). Format: cell membranes, CHO, Membrane.
A short description of experiment [7]: DRUGMATRIX: Glutamate, NMDA, Phencyclidine radioligand binding (ligand: [3H] TCP). Particulars: Not Active = under 50% inhibition at 10 µM. Format: cell membranes, Rattus norvegicus, Wistar, Cerebral cortex, Membrane.

Chain of D(3) dopamine receptor (P35462 whole entry): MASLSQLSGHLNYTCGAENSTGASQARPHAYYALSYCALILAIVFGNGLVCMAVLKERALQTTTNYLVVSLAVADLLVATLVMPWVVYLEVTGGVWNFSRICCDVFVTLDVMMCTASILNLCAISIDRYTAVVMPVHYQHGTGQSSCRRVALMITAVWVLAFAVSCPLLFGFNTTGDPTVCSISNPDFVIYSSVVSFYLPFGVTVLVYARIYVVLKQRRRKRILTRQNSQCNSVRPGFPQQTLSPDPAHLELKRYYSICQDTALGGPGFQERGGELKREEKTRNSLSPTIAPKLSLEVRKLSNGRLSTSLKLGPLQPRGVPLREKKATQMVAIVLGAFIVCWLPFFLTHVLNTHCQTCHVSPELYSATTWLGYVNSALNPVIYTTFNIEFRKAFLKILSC
Chain of Beta-2 adrenergic receptor (P07550 whole entry): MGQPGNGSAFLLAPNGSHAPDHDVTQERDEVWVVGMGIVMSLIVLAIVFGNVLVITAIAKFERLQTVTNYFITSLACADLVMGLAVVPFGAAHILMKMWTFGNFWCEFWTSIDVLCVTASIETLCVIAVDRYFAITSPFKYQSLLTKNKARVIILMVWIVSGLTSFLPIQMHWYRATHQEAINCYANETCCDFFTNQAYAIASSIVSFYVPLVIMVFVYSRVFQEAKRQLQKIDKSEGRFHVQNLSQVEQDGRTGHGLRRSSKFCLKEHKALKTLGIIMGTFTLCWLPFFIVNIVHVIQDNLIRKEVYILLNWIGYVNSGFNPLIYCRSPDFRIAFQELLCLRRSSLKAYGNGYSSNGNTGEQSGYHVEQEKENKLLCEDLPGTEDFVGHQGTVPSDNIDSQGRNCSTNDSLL

For the molecule `CC[C@@H](CO)NCCN[C@@H](CC)CO` [ETHAMBUTOL], the half-maximal inhibitory concentration (IC50) result in experiment [1], in experiment [2], in experiment [3], in experiment [4], in experiment [5] and in experiment [6] (cho) was “Not Active” throughout. In addition, the IC50 entry in experiment [7] was “Not Active”. In addition, the Ki result in experiment [4] and in experiment [7] was “Not Active” in each case.

With `CC1(C)O[C@@H]2C[C@H]3[C@@H]4C[C@H](F)C5=CC(=O)C=C[C@]5(C)[C@H]4[C@@H](O)C[C@]3(C)[C@]2(C(=O)CO)O1` [FLUNISOLIDE], the half-inhibitory concentration (IC50) entry in experiment [1], in experiment [2], in experiment [3], in experiment [4], in experiment [5] and in experiment [6] (cho) was “Not Active” each time. In addition, in experiment [7], the IC50 result is “Not Active”. Further, the Ki result in experiment [4] and in experiment [7] was “Not Active” each time.

As for `CC1(C)O[C@@H]2C[C@H]3[C@@H]4C[C@H](F)C5=CC(=O)C=C[C@]5(C)[C@@]4(F)[C@@H](O)C[C@]3(C)[C@]2(C(=O)CO)O1` [FLUOCINOLONE ACETONIDE], the IC50 result in experiment [1], in experiment [2], in experiment [3], in experiment [4], in experiment [5] and in experiment [6] (cho) was “Not Active” each time. The IC50 result in experiment [7] is “Not Active”. For the same molecule, the Ki result in experiment [4] and in experiment [7] was “Not Active” in each case.

As to `CC1(C)O[C@@H]2C[C@H]3[C@@H]4C[C@H](F)C5=CC(=O)CC[C@]5(C)[C@H]4[C@@H](O)C[C@]3(C)[C@]2(C(=O)CO)O1` [FLURANDRENOLIDE], the IC50 entry in experiment [1], in experiment [2], in experiment [3], in experiment [4], in experiment [5] and in experiment [6] (cho) was “Not Active” each time. In addition, the IC50 entry in experiment [7] is on record as “Not Active”. Moreover, the Ki result in experiment [4] and in experiment [7] was “Not Active” each time.

Regarding `CN(C)c1ccc(C(=C2C=CC(=[N+](C)C)C=C2)c2ccc(N(C)C)cc2)cc1.[Cl-]` [GENTIAN VIOLET], the IC50 entry was “Not Active” in experiment [1]; “Not Active” in experiment [2]; “Not Active” in experiment [3]; “Not Active” in experiment [4]; “Not Active” in experiment [5]; 831 nM in experiment [6] (read-out: IC50). Also, the half-maximal inhibitory concentration (IC50) entry in experiment [7] is “Not Active”. In addition, the Ki entry in experiment [4] is “Not Active”; in experiment [6] (read-out: Ki) it was 282 nM; in experiment [7], “Not Active”.

Turning to `Cc1ccc(S(=O)(=O)NC(=O)NN2CC3CCCC3C2)cc1` (stereo not drawn) [GLICLAZIDE], the 50% inhibitory concentration (IC50) entry in experiment [1], in experiment [2], in experiment [3], in experiment [4], in experiment [5] and in experiment [6] (cho) was “Not Active” each time. For the same molecule, in experiment [7], the IC50 entry is recorded as “Not Active”. For the same molecule, the Ki result in experiment [4] and in experiment [7] was “Not Active” in each case.

In the case of `NC(=O)NO` [HYDROXYUREA], the IC50 entry in experiment [1], in experiment [2], in experiment [3], in experiment [4], in experiment [5] and in experiment [6] (cho) was “Not Active” each time. In addition, in experiment [7], the IC50 result is “Not Active”. For the same molecule, the Ki entry in experiment [4] and in experiment [7] was “Not Active” each time.

With `CC(C)Cc1ccc(C(C)C(=O)O)cc1` (stereo not drawn) [IBUPROFEN], the IC50 entry in experiment [1], in experiment [2], in experiment [3], in experiment [4], in experiment [5] and in experiment [6] (cho) was “Not Active” throughout. Further, the IC50 entry in experiment [7] was “Not Active”. Besides, the Ki entry in experiment [4] and in experiment [7] was “Not Active” each time.

Take `COc1ccc2c(c1)c(CC(=O)O)c(C)n2C(=O)c1ccc(Cl)cc1` [INDOMETHACIN]: the IC50 entry in experiment [1], in experiment [2], in experiment [3], in experiment [4], in experiment [5] and in experiment [6] (cho) was “Not Active” throughout. Besides, the IC50 entry in experiment [7] is on record as “Not Active”. Moreover, the Ki entry in experiment [4] and in experiment [7] was “Not Active” each time.

For the molecule `CCc1c2c(nc3ccc(OC(=O)N4CCC(N5CCCCC5)CC4)cc13)-c1cc3c(c(=O)n1C2)COC(=O)[C@]3(O)CC` [IRINOTECAN], the IC50 result in experiment [1], in experiment [2], in experiment [3], in experiment [4], in experiment [5] and in experiment [6] (cho) was “Not Active” throughout. The IC50 result in experiment [7] is on record as “Not Active”. Also, the Ki entry in experiment [4] and in experiment [7] was “Not Active” each time.

For `CC(C(=O)O)c1cccc(C(=O)c2ccccc2)c1` (stereo not drawn) [KETOPROFEN], the IC50 result in experiment [1], in experiment [2], in experiment [3], in experiment [4], in experiment [5] and in experiment [6] (cho) was “Not Active” in each case. Moreover, the IC50 entry in experiment [7] is “Not Active”. Also, the inhibition constant (Ki) entry in experiment [4] and in experiment [7] was “Not Active” in each case.

Consider `Nc1ccn([C@@H]2CS[C@H](CO)O2)c(=O)n1` [LAMIVUDINE], for which the IC50 result in experiment [1], in experiment [2], in experiment [3], in experiment [4], in experiment [5] and in experiment [6] (cho) was “Not Active” in each case. Also, the IC50 result in experiment [7] is “Not Active”. Also, the Ki result in experiment [4] and in experiment [7] was “Not Active” throughout.

Regarding `O=S(=O)([O-])CCS.[Na+]` [MESNA], the IC50 entry in experiment [1], in experiment [2], in experiment [3], in experiment [4], in experiment [5] and in experiment [6] (cho) was “Not Active” throughout. Moreover, in experiment [7], the IC50 result is reported as “Not Active”. The Ki entry in experiment [4] and in experiment [7] was “Not Active” throughout.

`C#C[C@]1(O)CC[C@H]2[C@@H]3CCc4cc(OC)ccc4[C@H]3CC[C@@]21C` [MESTRANOL]: the IC50 entry in experiment [1], in experiment [2], in experiment [3], in experiment [4], in experiment [5] and in experiment [6] (cho) was “Not Active” throughout. In addition, the IC50 entry in experiment [7] was “Not Active”. Besides, the Ki result in experiment [4] and in experiment [7] was “Not Active” throughout.

As for `CC(=O)Nc1cccc(O)c1` [METACETAMOL], the IC50 entry in experiment [1], in experiment [2], in experiment [3], in experiment [4], in experiment [5] and in experiment [6] (cho) was “Not Active” in each case. In addition, the IC50 entry in experiment [7] was “Not Active”. Further, the Ki entry in experiment [4] and in experiment [7] was “Not Active” in each case.

Consider `Cc1ncc([N+](=O)[O-])n1CCO` [METRONIDAZOLE], for which the IC50 entry in experiment [1], in experiment [2], in experiment [3], in experiment [4], in experiment [5] and in experiment [6] (cho) was “Not Active” each time. Also, in experiment [7], the IC50 result was “Not Active”. Moreover, the inhibition constant (Ki) result in experiment [4] and in experiment [7] was “Not Active” throughout.

For the molecule `CC(C)(C(=O)c1cccnc1)c1cccnc1` [METYRAPONE], the 50% inhibitory concentration (IC50) entry in experiment [1], in experiment [2], in experiment [3], in experiment [4], in experiment [5] and in experiment [6] (cho) was “Not Active” each time. Further, the IC50 entry in experiment [7] was “Not Active”. The Ki entry in experiment [4] and in experiment [7] was “Not Active” throughout.

For the molecule `Oc1ccc(OCc2ccccc2)cc1` [MONOBENZONE], the IC50 entry in experiment [1], in experiment [2], in experiment [3], in experiment [4], in experiment [5] and in experiment [6] (cho) was “Not Active” each time. For the same molecule, the IC50 result in experiment [7] was “Not Active”. Further, the Ki entry in experiment [4] and in experiment [7] was “Not Active” throughout.
